Results reported in ChEMBL document CHEMBL4665740, “Discovery of noscapine derivatives as potential β-tubulin inhibitors” (Bioorg Med Chem Lett, 2020).
Calls of active or inactive are those of the source. The calls are words filed in the database; no cut-off is given here.

What was measured:
Tubulin beta = test: Binding affinity to CM5 chip immobilized beta tubulin (unknown origin) assessed as thermodynamic constants by SPR assay; type: protein assay, Homo sapiens
MCF7 [1] = test: Cytotoxicity against human MCF7 cells assessed as mortality at 20 uM after 48 hrs by MTT assay; type: functional, cell-based
MCF7 [2] = test: Cytotoxicity against human MCF7 cells assessed as mortality at 20 uM after 48 hrs by MTT assay relative to control; type: functional

Row | SMILES | Kd (Tubulin beta) | Activity (MCF7 [1]) | Activity (MCF7 [2])
1 | COc1ccc2c(c1OC)C(=O)O[C@@H]2[C@H]1c2c(cc3c(c2OC)OCO3)CCN1Cc1cn(-c2ccc(F)cc2)nn1 | 21.5 nM | Active | –
2 | COc1ccc2c(c1OC)C(=O)O[C@@H]2[C@H]1c2c(cc3c(c2OC)OCO3)CCN1C [NOSCAPINE] | 579 nM | – | 20%
3 | COc1ccc2c(c1OC)C(=O)O[C@@H]2[C@H]1c2c(c(Br)c3c(c2OC)OCO3)CCN1Cc1cn(-c2ccc(Cl)c(Cl)c2)nn1 | 374.3 nM | Active | –
4 | COc1ccc2c(c1OC)C(=O)O[C@@H]2[C@H]1c2c(c(Br)c3c(c2OC)OCO3)CCN1Cc1cn(-c2ccc(F)cc2)nn1 | – | Active | –
5 | CCC(O)Cn1cc(CN2CCc3c(Br)c4c(c(OC)c3[C@@H]2[C@H]2OC(=O)c3c2ccc(OC)c3OC)OCO4)nn1 (some centres not stated) | 132 nM | Active | –
6 | COc1ccc2c(c1OC)C(=O)O[C@@H]2[C@H]1c2c(c(Br)c3c(c2OC)OCO3)CCN1Cc1cn(CC(C)(C)O)nn1 | – | Active | –
7 | COc1ccc2c(c1OC)C(=O)O[C@@H]2[C@H]1c2c(cc3c(c2OC)OCO3)CCN1Cc1cn(CC(C)(C)O)nn1 | – | Active | –
8 | CCC(O)Cn1cc(CN2CCc3cc4c(c(OC)c3[C@@H]2[C@H]2OC(=O)c3c2ccc(OC)c3OC)OCO4)nn1 (some centres not stated) | – | – | 60%
9 | COc1ccc(-n2cc(CN3CCc4c(Br)c5c(c(OC)c4[C@@H]3[C@H]3OC(=O)c4c3ccc(OC)c4OC)OCO5)nn2)cc1OC | – | Active | –
10 | COc1ccc2c(c1OC)C(=O)O[C@@H]2[C@H]1c2c(c(Br)c3c(c2OC)OCO3)CCN1Cc1cn(-c2ccc(Br)cc2)nn1 | 36.9 nM | – | 60%
11 | COc1ccc2c(c1OC)C(=O)O[C@@H]2[C@H]1c2c(cc3c(c2OC)OCO3)CCN1Cc1cn(Cc2ccccc2)nn1 | 133 nM | – | 60%
